From US9371265B2, “Compositions and methods related to inhibitors of JAK kinase” (EP PHARMA, INC., priority 2012, dated 2016)

How the values were obtained:
IκBα = experiment: Phospho-IκBα in SU-DHL-1 cells (Luminex multiplex); format: cell-based, human; details: 24 hours
Method: FIGS. 8A-8F. Effect of EP009 on ALCL cells is mediated through selective activation of ERK1/2 and JNK1/2 stress signaling pathways, and inhibition of p70 S6 kinase growth signaling pathways. SU-DHL-1 cells were treated with vehicle (PBS) or increasing amounts of EP009 (0-50 μM) for 24 hours. Cells were then lysed, clarified, and subjected to Luminex multiplex analysis to detect phosphorylated (A) ERK1/2, (B) JNK1/2, (C) p70 S6 kinase, (D) IκBα, (E) CREB, and (F) p38. Values represent mean fluorescence intensity (MFI) normalized to corresponding GAPDH MFI, while error bars represent the standard deviation (n=2). Representative data from two independent experiments are shown. Statistical significance was determined using Student's t-test. (*, p<0.05).
The MILLIPLEX MAP 8-plex Multi-Pathway Signaling Phosphoprotein kit (Millipore) was used to detect phosphorylated ERK1/2 (Thr185/Tyr187), STAT3 (Ser727), JNK1/2 (Thr183/Tyr185), p70 S6 kinase (Thr412), IκBα (Ser32), STAT5A/B (Tyr694/699), CREB (Ser133), and p38 (Thr180/Tyr182). The MILLIPLEX MAP 5-plex STAT Phosphoprotein kit (Millipore) was used to detect phosphorylated STAT1 (Tyr701), STAT2 (Tyr690), STAT3 (Tyr705), STAT5A/B (Tyr694/699), and STAT6 (Tyr641). The MILLIPLEX MAP Human Apoptosis 3-plex kit (Millipore) was used to detect cleaved PARP, cleaved Caspase 3, and total GAPDH for protein normalization.

ALK = ALK (Homo sapiens, UniProt Q9UM73); experiment: Kinase panel: ALK; format: biochemical; details: 10 μM EP009
ALK, sequence (Q9UM73 19-1620): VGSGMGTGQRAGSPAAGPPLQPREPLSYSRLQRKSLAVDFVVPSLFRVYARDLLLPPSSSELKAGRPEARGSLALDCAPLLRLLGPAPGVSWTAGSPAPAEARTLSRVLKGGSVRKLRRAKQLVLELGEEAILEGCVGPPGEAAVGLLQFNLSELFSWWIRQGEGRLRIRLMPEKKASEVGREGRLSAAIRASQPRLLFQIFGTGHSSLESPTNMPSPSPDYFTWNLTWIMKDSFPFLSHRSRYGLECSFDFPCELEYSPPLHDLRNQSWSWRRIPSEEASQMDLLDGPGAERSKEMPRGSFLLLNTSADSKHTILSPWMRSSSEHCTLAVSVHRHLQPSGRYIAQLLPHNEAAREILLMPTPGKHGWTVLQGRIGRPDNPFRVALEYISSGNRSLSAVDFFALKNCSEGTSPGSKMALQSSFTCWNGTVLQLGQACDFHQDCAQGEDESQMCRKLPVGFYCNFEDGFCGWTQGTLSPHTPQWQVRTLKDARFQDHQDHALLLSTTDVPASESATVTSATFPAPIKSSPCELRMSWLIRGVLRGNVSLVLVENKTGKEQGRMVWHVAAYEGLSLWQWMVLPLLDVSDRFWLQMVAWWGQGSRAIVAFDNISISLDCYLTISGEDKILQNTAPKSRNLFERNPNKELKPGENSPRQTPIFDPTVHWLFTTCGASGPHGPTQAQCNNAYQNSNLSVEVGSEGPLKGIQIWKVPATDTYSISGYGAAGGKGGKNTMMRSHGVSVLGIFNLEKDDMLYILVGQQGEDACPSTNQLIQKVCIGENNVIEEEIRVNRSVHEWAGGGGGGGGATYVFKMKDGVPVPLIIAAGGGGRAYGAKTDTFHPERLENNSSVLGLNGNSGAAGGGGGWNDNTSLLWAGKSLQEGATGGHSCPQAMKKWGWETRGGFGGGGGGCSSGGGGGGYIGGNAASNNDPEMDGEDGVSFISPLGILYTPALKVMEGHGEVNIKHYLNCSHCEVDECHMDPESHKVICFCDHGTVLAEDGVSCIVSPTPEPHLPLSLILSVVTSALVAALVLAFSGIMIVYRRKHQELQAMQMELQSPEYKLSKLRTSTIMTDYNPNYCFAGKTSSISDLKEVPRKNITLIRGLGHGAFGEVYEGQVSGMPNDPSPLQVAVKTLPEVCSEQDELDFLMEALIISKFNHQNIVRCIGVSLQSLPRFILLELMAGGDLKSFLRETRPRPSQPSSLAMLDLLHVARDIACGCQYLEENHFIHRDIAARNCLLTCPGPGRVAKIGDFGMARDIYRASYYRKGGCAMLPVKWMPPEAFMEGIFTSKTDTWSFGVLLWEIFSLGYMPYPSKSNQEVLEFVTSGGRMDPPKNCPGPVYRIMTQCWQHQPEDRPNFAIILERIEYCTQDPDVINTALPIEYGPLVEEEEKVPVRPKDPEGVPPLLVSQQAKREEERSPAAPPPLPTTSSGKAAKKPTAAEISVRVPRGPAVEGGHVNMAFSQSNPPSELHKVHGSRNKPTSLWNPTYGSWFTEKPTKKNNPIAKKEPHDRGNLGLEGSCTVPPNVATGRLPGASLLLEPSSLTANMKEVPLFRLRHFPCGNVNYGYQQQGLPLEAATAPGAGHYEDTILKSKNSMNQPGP
Method: (§1) Achieving JAK3 selectivity remains a significant challenge in the development of new small molecules for the treatment of cancer and immune-derived diseases. As such, the inventors employed cell-based screening assays of small-molecule libraries based upon the chemical scaffold of the established JAK3 inhibitor NC1153 (Stepkowski et al., J Immunol. (2005), 175(7):4236-4246) EP009 (FIG. 2A) was selected as a lead compound due to improved intrinsic stability (>95% purity in various solvents at 37° C. for 24 hours; FIG. 3) and high-degree of JAK3 selectivity. To test JAK3 versus JAK2 specificity of EP009, the IL-2/JAK3-dependent Kit225, and IL-3/JAK2-dependent BaF/3 cell lines were used. Kit225 and BaF/3 cells growing in the presence of IL-2 or IL-3, respectively, were treated with ascending concentrations of EP009 for 12 hours and cellular JAK3 and JAK2 tyrosine phosphorylation levels detected by Western blot analysis (FIGS. 2B and 2C). Following densitometric analysis, EP009 was determined to dose-dependently reduce IL-2-mediated JAK3 tyrosine phosphorylation with a cellular 50% inhibitory concentration (IC50) between 10 and 20 μM (FIG. 2B). […] To globally evaluate specificity, the inhibitory activity of EP009 was measured against a panel of protein kinases distributed throughout the kinome using the scanEDGE profiling service (KINOMEscan). […]

CDK11 = CDK11 (Homo sapiens, UniProt Q9BWU1); experiment: Kinase panel: CDK11; format: biochemical; details: 10 μM EP009
CDK11, sequence (Q9BWU1 whole entry): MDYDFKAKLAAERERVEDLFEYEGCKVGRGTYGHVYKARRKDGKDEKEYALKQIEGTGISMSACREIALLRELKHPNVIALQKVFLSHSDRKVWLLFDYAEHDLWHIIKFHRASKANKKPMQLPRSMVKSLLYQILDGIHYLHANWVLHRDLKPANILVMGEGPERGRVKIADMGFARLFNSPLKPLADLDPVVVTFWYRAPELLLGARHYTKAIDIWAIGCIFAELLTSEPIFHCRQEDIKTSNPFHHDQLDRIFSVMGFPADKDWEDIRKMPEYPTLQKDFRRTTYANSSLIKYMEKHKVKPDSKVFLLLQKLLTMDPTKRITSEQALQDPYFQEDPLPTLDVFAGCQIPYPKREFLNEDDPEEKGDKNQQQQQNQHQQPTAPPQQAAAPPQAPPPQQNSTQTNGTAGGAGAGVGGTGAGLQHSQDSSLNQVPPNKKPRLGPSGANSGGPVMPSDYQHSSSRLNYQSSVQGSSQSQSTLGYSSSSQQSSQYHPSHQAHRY
Method: as §1

FGFR3 = FGFR3 (Homo sapiens, UniProt P22607); experiment: Kinase panel: FGFR3; format: biochemical; details: 10 μM EP009
FGFR3, sequence (P22607 23-806): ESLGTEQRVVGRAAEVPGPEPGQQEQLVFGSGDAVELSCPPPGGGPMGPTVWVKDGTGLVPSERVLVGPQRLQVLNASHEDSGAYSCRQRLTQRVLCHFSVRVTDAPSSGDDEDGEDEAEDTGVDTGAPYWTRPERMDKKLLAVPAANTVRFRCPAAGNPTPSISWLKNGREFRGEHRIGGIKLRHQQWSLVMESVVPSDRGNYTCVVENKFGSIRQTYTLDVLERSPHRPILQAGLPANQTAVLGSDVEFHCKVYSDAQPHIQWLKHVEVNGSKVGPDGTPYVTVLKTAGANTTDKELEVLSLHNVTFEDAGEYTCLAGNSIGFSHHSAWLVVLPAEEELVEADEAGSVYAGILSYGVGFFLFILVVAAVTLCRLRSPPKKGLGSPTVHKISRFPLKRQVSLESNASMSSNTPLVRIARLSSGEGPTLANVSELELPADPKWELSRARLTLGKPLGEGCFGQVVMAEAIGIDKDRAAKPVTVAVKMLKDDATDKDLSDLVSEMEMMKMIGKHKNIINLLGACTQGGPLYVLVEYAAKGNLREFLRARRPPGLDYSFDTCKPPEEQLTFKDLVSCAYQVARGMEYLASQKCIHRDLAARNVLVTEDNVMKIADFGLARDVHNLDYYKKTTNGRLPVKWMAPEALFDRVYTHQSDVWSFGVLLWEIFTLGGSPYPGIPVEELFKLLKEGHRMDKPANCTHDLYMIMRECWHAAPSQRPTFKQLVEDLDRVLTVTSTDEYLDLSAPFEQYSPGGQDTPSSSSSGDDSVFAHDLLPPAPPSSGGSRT
Method: as §1

PIM1 = PIM1 (Homo sapiens, UniProt P11309); experiment: Kinase panel: PIM1; format: biochemical; details: 10 μM EP009
PIM1, sequence (P11309 whole entry): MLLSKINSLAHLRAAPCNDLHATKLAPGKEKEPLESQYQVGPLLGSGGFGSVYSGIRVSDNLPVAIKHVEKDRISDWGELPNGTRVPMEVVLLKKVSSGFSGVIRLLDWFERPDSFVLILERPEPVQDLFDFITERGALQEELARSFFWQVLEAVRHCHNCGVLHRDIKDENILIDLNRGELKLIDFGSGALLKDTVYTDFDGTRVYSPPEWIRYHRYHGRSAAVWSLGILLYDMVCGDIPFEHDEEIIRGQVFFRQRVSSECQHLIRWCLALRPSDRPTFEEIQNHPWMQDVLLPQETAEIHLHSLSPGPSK
Method: as §1

[1] = tested on: IL-2/JAK3-dependent Kit225 cells; experiment: Kit225 cell viability (MTS); format: cell-based, human
Method: FIGS. 2A-2F. […] (B) Kit225 or (C) BaF/3 cells cultured in the presence of IL-2 or IL-3, respectively, were treated with vehicle (PBS; lane a) or increasing amounts of EP009 (0-50 μM; lanes b-h) for 12 hours. Cells were then lysed, clarified, and immunoprecipitated (IP) with anti-JAK3 (α-JAK3) or anti-JAK2 (α-JAK2), and subjected to Western blot (WB) analysis with anti-phosphotyrosine (α-pY). Blots were stripped and reprobed with corresponding antibody to verify equivalent protein loading. (D) Immunopurified JAK3 was subjected to in vitro autokinase analysis after treatment with vehicle (DMSO; lanes a and b) or ascending concentrations of EP009 (0-10 μM; lanes c-f) for 1 hour at room temperature. […] (E) Kit225 or BaF/3 cells were cultured with increasing amounts of EP009 (0-10 μM) for 72 hours and cell viability measured with the MTS tetrazolium salt assay. Values represent mean absorbance (OD490-OD650 nm) normalized to vehicle (PBS) treated control cells, while error bars represent the standard deviation (n=3). (F) HEK293, HEPG2, or naïve primary human PBMCs were cultured with increasing amounts of EP009 (0-10 μM) for 72 hours and cell viability measured with the MTS tetrazolium salt assay. Values represent mean absorbance (OD490-OD650 nm) normalized to vehicle (PBS) treated control cells, while error bars represent the standard deviation (n=3). […]

KIT(D816V) = KIT(D816V) (Homo sapiens, UniProt P10721, D816V); experiment: Kinase panel: KIT(D816V); format: biochemical; details: 10 μM EP009
KIT(D816V), sequence (P10721 26-976 D816V): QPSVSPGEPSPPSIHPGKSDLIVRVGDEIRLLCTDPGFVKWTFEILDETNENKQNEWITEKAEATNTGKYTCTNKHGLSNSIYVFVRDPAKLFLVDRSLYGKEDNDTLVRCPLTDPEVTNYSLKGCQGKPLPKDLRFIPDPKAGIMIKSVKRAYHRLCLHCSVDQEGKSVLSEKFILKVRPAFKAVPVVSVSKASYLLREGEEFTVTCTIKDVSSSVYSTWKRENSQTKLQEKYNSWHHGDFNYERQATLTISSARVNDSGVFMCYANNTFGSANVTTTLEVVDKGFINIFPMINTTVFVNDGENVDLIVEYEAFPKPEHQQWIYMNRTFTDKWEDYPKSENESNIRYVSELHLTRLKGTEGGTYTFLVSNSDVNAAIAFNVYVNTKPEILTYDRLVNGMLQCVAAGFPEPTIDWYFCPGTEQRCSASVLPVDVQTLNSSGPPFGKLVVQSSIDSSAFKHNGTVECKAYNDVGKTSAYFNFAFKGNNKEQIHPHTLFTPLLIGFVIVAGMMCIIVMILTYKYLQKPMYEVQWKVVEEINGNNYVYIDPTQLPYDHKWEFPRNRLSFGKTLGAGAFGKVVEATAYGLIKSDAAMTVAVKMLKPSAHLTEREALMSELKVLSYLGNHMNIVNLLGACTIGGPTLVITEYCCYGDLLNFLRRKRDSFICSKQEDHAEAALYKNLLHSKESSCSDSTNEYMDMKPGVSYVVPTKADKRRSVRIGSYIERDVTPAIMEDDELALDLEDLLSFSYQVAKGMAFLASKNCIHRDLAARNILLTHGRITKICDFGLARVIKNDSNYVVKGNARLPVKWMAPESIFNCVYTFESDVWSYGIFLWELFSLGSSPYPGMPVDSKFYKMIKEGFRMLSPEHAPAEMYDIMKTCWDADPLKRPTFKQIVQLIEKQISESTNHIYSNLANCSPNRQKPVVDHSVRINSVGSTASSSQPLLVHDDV
Method: as §1

With `C=C1CCCCCCCCCC(CO)C1=O` (centres unmarked) [EP009, 2-(Hydroxymethyl)-12-methylenecyclododecanone] the IκBα phosphorylation status (IκBα) was “No statistically significant change”, the “Kinase Activity (% of Control)” value (ALK) was 100 % of Control and the “Kinase Activity (% of Control)” value (CDK11) was 100 % of Control. The “Kinase Activity (% of Control)” value (FGFR3) was 100 % of Control, the “Kinase Activity (% of Control)” value (PIM1) was 100 % of Control and the “concentration resulting in maximal loss of Kit225 cell viability” value ([1]; 72 hours) was 7.5 to 10 µM. The cytotoxicity at 5 µM ([1]; Homo sapiens, Kit225, 5.0 μM EP009, 72 hours, read-out: reduction in cell viability) was 55% and the “Kinase Activity (% of Control)” value (KIT(D816V)) was 100 % of Control.
